For series [1] the following is noted: ref [24], cited from earlier work; for isomerization after 6 days: acetonitrile/water solution.
In series [2] the test system is SJSA-1 osteosarcoma tumor cell line.
For series [3] the following is noted: 17D 200 mg/kg or 31 100 mg/kg, daily oral 14 days.
Series [4] deals with recombinant human His-tagged MDM2 protein (residues 1–118) (Homo sapiens, UniProt Q00987). To be noted: in words.
The test system of series [5] is p53 activation and apoptosis in SJSA-1 tumor tissue. To be noted: mouse, in vivo, po, 100 mg/kg.
Series [6] concerns SJSA-1 osteosarcoma xenografts. The note with it: 100 mg/kg, orally daily for 14 days.

Sequence of recombinant human His-tagged MDM2 protein (residues 1–118) (Q00987 1-118): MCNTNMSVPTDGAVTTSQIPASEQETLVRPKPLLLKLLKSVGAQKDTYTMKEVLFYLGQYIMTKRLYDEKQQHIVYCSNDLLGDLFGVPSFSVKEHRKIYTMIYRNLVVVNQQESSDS

On to `CC(C)(C)C[C@@H]1N[C@@H](C(=O)N[C@H]2C[C@@](C)(O)C2)[C@H](c2cccc(Cl)c2F)[C@]12C(=O)Nc1cc(Cl)ccc12` [Compound 3], for which, in series [1] (0 h), the “% composition of compound in 1:1 CH3CN/H2O, 0 h” value is given as 100%. Besides, the “isomerization after 6 days” value in series [1] was 2.3%.

As for `CC1(C)N[C@@H](C(=O)N[C@H]2CC[C@H](O)CC2)[C@H](c2cccc(Cl)c2F)[C@]12C(=O)Nc1cc(Cl)ccc12` [Compound 12D, (3R,4′S,5′R)-6-Chloro-4′-(3-chloro-2-fluorophenyl)-N-((1R,4R)-4-hydroxycyclohexyl)-2′,2′-dimethyl-2-oxospiro[indoline-3,3′-pyrrolidine]-5′-carboxamide], the “IC50 values in inhibition of cell growth” value in series [2] is on record as “low micromolar range”. Same read-out and setting: then `CCCC1(CCC)N[C@@H](C(=O)N[C@H]2CC[C@H](O)CC2)[C@H](c2cccc(Cl)c2F)[C@]12C(=O)Nc1cc(Cl)ccc12` [Compound 14D, (3R,4′S,5′R)-6-Chloro-4′-(3-chloro-2-fluorophenyl)-N-((1r,4R)-4-hydroxycyclohexyl)-2-oxo-2′,2′-di-n-propylspiro[indoline-3,3′-pyrrolidine]-5′-carboxamide], with “low micromolar range”; and `O=C(N[C@H]1CC[C@H](O)CC1)[C@@H]1NC2(CCC2)[C@]2(C(=O)Nc3cc(Cl)ccc32)[C@H]1c1cccc(Cl)c1F` [Compound 15C, (3′S,4′S,5′R)-6″-Chloro-4′-(3-chloro-2-fluorophenyl)-N-((1R,4R)-4-hydroxycyclohexyl)-2″-oxodispiro[cyclobutane-1,2′-pyrrolidine-3′,3″-indoline]-5′-carboxamide], with “low micromolar range”; and `O=C(N[C@H]1CC[C@H](O)CC1)[C@@H]1NC2(CCC2)[C@@]2(C(=O)Nc3cc(Cl)ccc32)[C@H]1c1cccc(Cl)c1F` [Compound 15D, (3′R,4′S,5′R)-6″-Chloro-4′-(3-chloro-2-fluorophenyl)-N-((1R,4R)-4-hydroxycyclohexyl)-2″-oxodispiro[cyclobutane-1,2′-pyrrolidine-3′,3″-indoline]-5′-carboxamide], with “low micromolar range”. As for `O=C(N[C@H]1CC[C@H](O)CC1)[C@@H]1NC2(CCCC2)[C@@]2(C(=O)Nc3cc(Cl)ccc32)[C@H]1c1cccc(Cl)c1F` [Compound 16D, (3′R,4′S,5′R)-6″-Chloro-4′-(3-chloro-2-fluorophenyl)-N-((1R,4R)-4-hydroxycyclohexyl)-2″-oxodispiro[cyclopentane-1,2′-pyrrolidine-3′,3″-indoline]-5′-carboxamide], in series [2], the “IC50 values in inhibition of cell growth” value was “sub-micromolar”. Consider `O=C(N[C@H]1CC[C@H](O)CC1)[C@@H]1NC2(CCCCC2)[C@@]2(C(=O)Nc3cc(Cl)ccc32)[C@H]1c1cccc(Cl)c1F` [Compound 17D, (3′R,4′S,5′R)-6″-Chloro-4′-(3-chloro-2-fluorophenyl)-N-((1R,4R)-4-hydroxycyclohexyl)-2″-oxodispiro[cyclohexane-1,2′-pyrrolidine-3′,3″-indoline]-5′-carboxamide], for which, in series [2], the “IC50 values in inhibition of cell growth” value was “sub-micromolar”. In addition, in series [3], the “signs of toxicity during or after the treatment” value was “did not show any signs of toxicity” and the weight loss result is “no weight loss”. For the compound `N[C@@H](C(=O)N[C@H]1CC[C@H](O)CC1)[C@H](c1cccc(Cl)c1F)C1C(=O)Nc2cc(Cl)ccc21` (stereo partly drawn) [Compound 20], the “binding to MDM2” value in series [4] is “does not bind to MDM2”. In the case of `O=C(NCCN1CCOCC1)[C@@H]1NC2(CCC2)[C@]2(C(=O)Nc3cc(Cl)ccc32)[C@H]1c1cccc(Cl)c1F` [Compound 22C], the “IC50 values in inhibition of cell growth” value in series [2] was “low micromolar range”. Still for that read-out and setting: then `O=C(NCCN1CCOCC1)[C@@H]1NC2(CCC2)[C@@]2(C(=O)Nc3cc(Cl)ccc32)[C@H]1c1cccc(Cl)c1F` [Compound 22D], with “low micromolar range”. Still for that read-out and setting: then `O=C(NCCN1CCOCC1)[C@@H]1NC2(CCCCC2)[C@@]2(C(=O)Nc3cc(Cl)ccc32)[C@H]1c1cccc(Cl)c1F` [Compound 23D], with “sub-micromolar”; and `O=C(NCC[C@H](O)CO)[C@@H]1NC2(CCC2)[C@]2(C(=O)Nc3cc(Cl)ccc32)[C@H]1c1cccc(Cl)c1F` [Compound 25C], with “low micromolar range”; and `O=C(NCC[C@H](O)CO)[C@@H]1NC2(CCC2)[C@@]2(C(=O)Nc3cc(Cl)ccc32)[C@H]1c1cccc(Cl)c1F` [Compound 25D], with “low micromolar range”.

In the case of `O=C(NCC[C@H](O)CO)[C@@H]1NC2(CCCCC2)[C@@]2(C(=O)Nc3cc(Cl)ccc32)[C@H]1c1cccc(Cl)c1F` [Compound 26D], the “IC50 values in inhibition of cell growth” value in series [2] is “sub-micromolar”. Still for that read-out and setting: then `C[C@]1(O)C[C@@H](NC(=O)[C@@H]2NC3(CCC3)[C@]3(C(=O)Nc4cc(Cl)ccc43)[C@H]2c2cccc(Cl)c2F)C1` [Compound 28C], with “low micromolar range”; and `C[C@]1(O)C[C@@H](NC(=O)[C@@H]2NC3(CCCCC3)[C@@]3(C(=O)Nc4cc(Cl)ccc43)[C@H]2c2cccc(Cl)c2F)C1` [Compound 29D], with “sub-micromolar”. As for `O=C(O)c1ccc(NC(=O)[C@@H]2NC3(CCCCC3)[C@@]3(C(=O)Nc4cc(Cl)ccc43)[C@H]2c2cccc(Cl)c2F)cc1` [Compound 31, 4-((3′R,4′S,5′R)-6″-Chloro-4′-(3-chloro-2-fluorophenyl)-2″-oxodispiro[cyclohexane-1,2′-pyrrolidine-3′,3″-indoline]-5′-carboxamido)benzoic Acid], in series [5], the “PARP cleavage (apoptosis induction) in tumor tissue” value is listed as “robust cleavage of PARP”; the “p53 activation (accumulation of p53, MDM2 and p21 proteins) in tumor tissue” value is recorded as “effectively activated p53”. Further, in series [3], the “signs of toxicity during or after the treatment” value is recorded as “did not show any signs of toxicity” and the weight loss entry is given as “no weight loss”. Further, in series [6] (day 25, of eight mice), the “mice with no detectable tumor” value is “three”. For the same compound, the tumor regression entry in series [6] (in words) is “achieved significant tumor regression”.

Regarding `CC(C)(C)C[C@@H]1N[C@@H](C(=O)NCCN2CCOCC2)[C@H](c2cccc(Cl)c2F)[C@]12C(=O)Nc1cc(Cl)ccc12` [MI-63], in series [1], the “isomerization after 6 days” value was 17.3%. With `CC(C)(C)C[C@@H]1N[C@@H](C(=O)NCC[C@H](O)CO)[C@H](c2cccc(Cl)c2F)[C@]12C(=O)Nc1cc(Cl)ccc12` [MI-147], the “isomerization after 6 days” value in series [1] is 8.6%.

The values are drawn from paper PMC4281096 (Journal of Medicinal Chemistry, 2014).
